Source: patent publication US20180071248A1, “COMPOSITION FOR IMPROVING CIRCADIAN RHYTHM” (SUNTORY HOLDINGS LIMITED, priority 2015, published 2018)

Tests used:
[1] = test system: Per 2 gene expression rhythm; assay: Per 2 gene expression rhythm in Per2::LUC knock-in mouse-derived embryonic fibroblast line (luciferase chemiluminescence, LumiCycle); type: cell-based; conditions: Per2::LUC mouse embryonic fibroblasts; each substance at 10 μM; FIG. 4
Protocol: The cell line used was Per2::LUC knock-in mouse-derived embryonic fibroblast line. Per2::LUC knock-in mouse is a mouse in which the luciferase gene serving as a reporter is introduced downstream of the promoter region of the clock gene Per 2. Therefore, a Per 2::LUC knock-in mouse-derived embryonic fibroblast line expresses the luciferase gene along with periodic expression of the clock gene. When Per 2::LUC knock-in mouse-derived embryonic fibroblasts are cultured in a culture medium containing luciferin, a luciferase substrate, the cells produce chemiluminescence periodically; thus, by monitoring the chemiluminescence, the expression rhythm of the clock gene Per 2 can be evaluated.
At first, about 5×10^5 cells of the Per2::LUC knock-in mouse-derived embryonic fibroblast line were seeded onto 35 mm culture dishes, and then treated with 200 nM dexamethasone for 2 hours to thereby reset (tune) the biorhythm of the cells. […] While the cell culture was continued, the chemiluminescence of the reporter gene was measured real-time with a luminometer (LumiCycle; produced by Actimetrics) for one minute at a frequency of every 10 minutes, and the measurement was continued for 5 days. Amplitude and period length were calculated from the obtained waveform to evaluate the effect of the test substance, a 1:1 mixture of sesamin/episesamin. […]

circadian rhythm = conditions: disclosed in NPLs 4 and 5; cited from earlier work

Compound | amplitude of Per 2 gene expression [1] | circadian rhythm amplitude (circadian rhythm) | circadian rhythm period (circadian rhythm)
Oc1cc2c(cc1[C@H]1OC[C@H]3[C@@H]1CO[C@@H]3c1ccc3c(c1)OCO3)OCO2 [sesaminol] | capable of increasing the amplitude | – | –
Cn1c(=O)c2c(ncn2C)n(C)c1=O [caffeine] | – | amplify circadian rhythm amplitude | lengthen circadian rhythm period
c1cc2c(cc1[C@H]1OC[C@H]3[C@@H]1CO[C@@H]3c1ccc3c(c1)OCO3)OCO2 [sesamin] | capable of increasing the amplitude | – | –
